What was measured:
[1] = system: Histone deacetylase (HDAC), HeLa cell nuclear extract; assay: In vitro fluorescent histone deacetylase assay (Biomol kit, HeLa cell nuclear extract); format: biochemical; conditions: compound at 100 μM; HeLa cell nuclear extract as HDAC source; substrate 50 μM; 10 min at room temperature
Method: Histone deacetylase (HDAC) activity assays were performed using the HDAC fluorescent activity assay/drug discovery kit (Biomol Research Laboratories, Plymouth Meeting, Pa.) essentially according to the manufacturer's instructions. The included HeLa cell nuclear extract, which contains a mosaic of HDAC enzymes and other nuclear factors, was used as the source of HDAC activity. The final substrate concentration in the assay mixture was 50 μM. The reaction was allowed to proceed for 10 min at room temperature before stopping the reaction. Test compounds were prepared as 20 mM stock solutions in DMSO (Molecular Biology grade, Sigma-Aldrich Co. St. Louis, Mo.) and stored at −70° C. Serial dilutions of test compounds were prepared in assay buffer immediately prior to testing. DMSO was determined in a separate trial to have no significant effect on the activity of this assay at concentrations up to 5%; the final DMSO concentration in the wells was no more than 2% and therefore DMSO effects were safely neglected. Assays were performed in white polystyrene 96-well half-area assay plates (Corning, Corning, N.Y.) and measured on a Wallace 1420 fluorescent plate reader (Wallac Oy, Turku, Finland) with an excitation wavelength of 355 nm, an emission wavelength of 460 nm, and a 1 sec signal averaging time.

[2] = system: MCF7 cells; assay: Whole cell cytotoxicity assay: Sulforhodamine B; format: cell-based, human; conditions: compound at 100 μM, MCF7 cell growth, 48 hours with drug, SRB staining; for inhibition at 100 µM: Homo sapiens
Method: The following procedure can be found on the Developmental Therapeutics Program NCI/NIH web site at http://dtp.nci.nih.gov/brancehes/btb/ivclsp.html.
1. Human tumor cell lines of HT29, A549 and MCF7 are grown in DMEM containing 10% fetal bovine serum and 2 mM L-glutamine. Cells are plated in a 96 well plate at a density of 5000 cells per well in 100 μL of growth medium and incubated at 37° C., 5% CO2, for 24 hours prior to the addition of experimental compounds.
2. Experimental drugs are solubilized in DMSO for a final concentration of 20 mM immediately prior to use. Drugs are further diluted in growth media for a total of nine drug concentrations and a growth control. At the 24 hour time point, one plate of cells is fixed in situ with TCA as a measurement of the cell population at time zero, or the time of drug addition.
3. The plates are further incubated with drug for an additional 48 hours.
4. The cells are fixed in situ by gently aspirating off the culture media and then adding 50 μL of ice cold 10% TCA per well and incubated at 4° C. for 60 minutes. The plates are washed with tap water five times and allowed to air dry for 5 minute.
5. 50 μL of a 0.4% (w/v) Sulforhodamine B solution in 1% (v/v) acetic acid is added per well and incubated for 30 minutes at room temperature.
6. Following staining, plates are washed five times with 1% acetic acid to remove any unbound dye and then allowed to air dry for 5 minutes.
7. Stain is solubilized with 100 μL of 10 mM Tris pH 10.5 per well and placed on an orbital rotator for 5 minutes.
8. Absorbance is read at 570 nm.

Row | Compound | % inhibition HDAC @ 100 μM [1] [%] | inhibition at 100 µM [2] [%] | % inhibition MCF7 cells @ 100 μM [2] [%]
1 | Cc1ccc(S(=O)(=O)N2CCN(c3ncc(C(=O)NO)s3)CC2)cc1F [Example 40, 2-[4-(3-fluoro-4-methylphenylsulfonyl)-piperazin-1-yl]-thiazole-5-carboxylic acid hydroxyamide] | 100 | 99.1 | –
2 | O=C(NO)c1cnc(N2CCN(S(=O)(=O)c3ccc(-c4ccc5c(c4)OCO5)cc3)CC2)s1 [Example 60, 2-(4-{[4-(1,3-benzodioxol-5-yl)phenyl]sulfonyl}piperazin-1-yl)-1,3-thiazole-5-carboxylic acid hydroxyamide] | 99 | 92.1 | –
3 | O=C(NO)c1cnc(N2CCN(S(=O)(=O)c3ccc(-c4ccc(F)cc4)cc3)CC2)s1 [Example 56, 2-{4-[(4′-fluoro-1,1′-biphenyl-4-yl)sulfonyl]piperazin-1-yl}-1,3-thiazole-5-carboxylic acid hydroxyamide] | 98 | 96.9 | –
4 | O=C(NO)c1cnc(N2CCN(S(=O)(=O)c3cccc(F)c3)CC2)s1 [Example 35, 2-[4-(3-fluorophenylsulfonyl)-piperazin-1-yl]-thiazole-5-carboxylic acid hydroxyamide] | 97 | 97.9 | –
5 | O=C(NO)c1cnc(N2CCN(S(=O)(=O)c3ccc(-c4ccco4)cc3)CC2)s1 [Example 59, 2-(4-{[4-(2-furyl)phenyl]sulfonyl}piperazin-1-yl)-1,3-thiazole-5-carboxylic acid hydroxyamide] | 99 | 98.9 | –
6 | O=C(NO)c1cnc(N2CCN(S(=O)(=O)c3ccc(-c4cccnc4)cc3)CC2)s1 [Example 93, 2-[4-{(3-pyrido)benzenesulfonyl}-piperazin-1-yl]-thiazole-5-carboxylic acid hydroxyamide] | 100 | 92.7 | –
7 | O=C(NO)c1cnc(N2CCN(S(=O)(=O)c3ccccc3)CC2)s1 [Example 12, 2-[4-(benzenesulfonyl)-piperazin-1-yl]-thiazole-5-carboxylic acid hydroxyamide] | 98 | 95.5 | –
8 | CSc1nccc(-c2ccc(S(=O)(=O)N3CCN(c4ncc(C(=O)NO)s4)CC3)s2)n1 [Example 45, 2-[4-(2-{2-methylthiopyrimidine-4-yl}-5-thiophenesulfonyl)-piperazin-1-yl]-thiazole-5-carboxylic acid hydroxyamide] | 95 | 78.7 | –
9 | CC(C)(C)OC(=O)n1cccc1-c1ccc(S(=O)(=O)N2CCN(c3ncc(C(=O)NO)s3)CC2)cc1 [Example 66] | 99 | 97 | –
10 | Cc1ccc(F)cc1S(=O)(=O)N1CCN(c2ncc(C(=O)NO)s2)CC1 [Example 33, 2-[4-(2-methyl-5-fluorophenylsulfonyl)-piperazin-1-yl]-thiazole-5-carboxylic acid hydroxyamide] | 96 | 98.4 | –
11 | CN(C)c1cccc2c(S(=O)(=O)N3CCN(c4ncc(C(=O)NO)s4)CC3)cccc12 [Example 10, 2-[4-(5-dimethylamino-naphthalene-1-sulfonyl)-piperazin-1-yl]-thiazole-5-carboxylic acid hydroxyamide] | 88 | 97.8 | –
12 | O=C(NO)c1cnc(N2CCN(S(=O)(=O)c3ccc(N4CCCC4)cc3)CC2)s1 [Example 13, 2-[4-(4-pyrolidinylbenzenesulfonyl)-piperazin-1-yl]-thiazole-5-carboxylic acid hydroxyamide] | 99 | 98.9 | –
13 | CC(C)(C)c1ccc(S(=O)(=O)N2CCN(c3ncc(C(=O)NO)s3)CC2)cc1 [Example 25, 2-[4-(4-t-butylphenylsulfonyl)-piperazin-1-yl]-thiazole-5-carboxylic acid hydroxyamide] | 98 | 90.1 | –
14 | CN(C)Cc1cccc(-c2ccc(S(=O)(=O)N3CCN(c4ncc(C(=O)NO)s4)CC3)cc2)c1.Cl [Example 74] | 100 | 97.3 | –
15 | 2-(4-{4-[(3-(pyrrolidin-1-ylmethyl)-2-furyl]phenylsulfonly}piperazin-1-yl)-1,3-thiazole-5-carboxylic acid hydroxyamide [Example 83] | 100 | – | 98
16 | O=C(NO)c1cnc(N2CCN(S(=O)(=O)c3ccc(-c4cccc(F)c4)cc3)CC2)s1 [Example 61] | 95 | 92.2 | –
17 | O=C(NO)c1cnc(N2CCN(S(=O)(=O)c3cccc(-c4ccccc4)c3)CC2)s1 [Example 51, 2-[4-(3-biphenylsulfonyl)-piperazin-1-yl]-thiazole-5-carboxylic acid hydroxyamide] | 100 | 97 | –
18 | CN1CCN(Cc2cccc(-c3ccc(S(=O)(=O)N4CCN(c5ncc(C(=O)NO)s5)CC4)cc3)c2)CC1 [Example 84] | 100 | 96.7 | –
19 | COCc1cccc(S(=O)(=O)N2CCN(c3ncc(C(=O)NO)s3)CC2)c1 [Example 99, 2-[4-(3-methoxymethylbenzenesulfonyl)-piperazin-1-yl]-thiazole-5-carboxylic acid hydroxyamide] | 99 | 96 | –
20 | O=C(NO)c1cnc(N2CCN(S(=O)(=O)c3ccc(CN4CCOCC4)cc3)CC2)s1 [Example 106] | 99 | 82.3 | –
21 | O=C(NO)c1cnc(N2CCN(S(=O)(=O)c3ccc4nsnc4c3)CC2)s1 [Example 46, 2-[4-(2,1,3-benzothiadiazole-5-sulfonyl)-piperazin-1-yl]-thiazole-5-carboxylic acid hydroxyamide] | 98 | 77.3 | –
22 | CC(=O)Nc1ccc(-c2ccc(S(=O)(=O)N3CCN(c4ncc(C(=O)NO)s4)CC3)cc2)cc1 [Example 92] | 100 | 88.8 | –
23 | O=C(NO)c1cnc(N2CCN(S(=O)(=O)c3ccc(CN4CCCC4)cc3)CC2)s1 [Example 105] | 99 | 93 | –
24 | COc1ccc(S(=O)(=O)N2CCN(c3ncc(C(=O)NO)s3)CC2)cc1OC [Example 2, 2-[4-(3,4-dimethoxy-benzenesulfonyl)-piperazin-1-yl]-thiazole-5-carboxylic acid hydroxyamide] | 99 | 98.3 | –
25 | O=C(NO)c1cnc(N2CCN(S(=O)(=O)/C=C/c3ccccc3)CC2)s1 [Example 20, 2-[4-(trans-2-phenylethanelsulfonyl)piperazin-1-yl]-thiazole-5-carboxylic acid hydroxyamide] | 97 | 97.9 | –
26 | O=C(NO)c1cnc(N2CCN(S(=O)(=O)c3cccnc3)CC2)s1 [Example 49, 2-[4-(pyridine-3-sulfonyl)-piperazin-1-yl]-thiazole-5-carboxylic acid hydroxyamide] | 85 | 95.4 | –
27 | O=C(NO)c1cnc(N2CCN(S(=O)(=O)c3ccccc3C(F)(F)F)CC2)s1 [Example 37, 2-[4-(2-trifluoromethylphenylsulfonyl)-piperazin-1-yl]-thiazole-5-carboxylic acid hydroxyamide] | 99 | 98 | –

From patent publication US20050197336A1 (Miikana Therapeutics Corporation, priority 2004, published 2005)
